# Data published in patent US8759031B2, “Type I polyketide synthase extender units” (priority 2007, dated 2014).
# Like-named read-outs stand apart in the source and are kept apart here.
# Columns and labels:
# ZmaJ [1] = molecular target: T1, ZmaJ (Bacillus cereus, UniProt Q7BQ71)
# Procedure: ATP-PPi exchange assays were performed as previously described (Thomas et al., 2002, Chem. Biol. 9: 171-184). Reactions for amino acid specificity contained 70 nM ZmaJ and 1 mM of the following amino acids: L-Ser, L-2,3-diaminopropionate, L-Thr, Gly, and L-Cys. To determine the kinetic parameters of ZmaJ activation of L-Ser, 100 μL reactions containing 70 nM ZmaJ, 3.5 mM ATP, and varying concentrations of L-Ser (0.35 to 10 mM), in triplicate, were incubated for 10 min prior to stopping the reactions.
# N[C@@H](CO)C(=O)O = assay: purified protein, by the assay type; conditions: other: 70 nM ZmaJ, 3.5 mM ATP, L-Ser 0.35 to 10 mM, 10 min, triplicate
# Procedure: ZmaJ used in these assays was purified by an additional anion exchange chromatography step, which had no effect on seryl-ZmaH formation. […] Reactions for amino acid specificity contained 70 nM ZmaJ and 1 mM of the following amino acids: L-Ser, L-2,3-diaminopropionate, L-Thr, Gly, and L-Cys. To determine the kinetic parameters of ZmaJ activation of L-Ser, 100 μL reactions containing 70 nM ZmaJ, 3.5 mM ATP, and varying concentrations of L-Ser (0.35 to 10 mM), in triplicate, were incubated for 10 min prior to stopping the reactions. The reactions were in the linear range for enzyme concentration and less than 10% substrate-to-product conversion.
# ZmaJ [2] = molecular target: T1, ZmaJ; conditions: 10 μM holo-ZmaD replaced holo-ZmaH; L-serine, ATP
# Procedure: Reaction mixtures (130 or 260 μl) contained: 10 μM holo-ZmaH, 58 mM Tris pH 7.5, 8 mM MgCl2, 0.8 mM TCEP, 385 μM CoA, 0.8 μM Sfp, 250 μM L-serine, 5 mM ATP, and 1 μM ZmaJ. The reaction mixtures were incubated at 22° C. for 1 hour. To test whether seryl-ZmaD could be formed, 10 μM holo-ZmaD replaced the 10 μM holo-ZmaH in a 130 μL reaction mixture.
# In this experiment, 100-200 μl of apo- or holo-ZmaH or 130-200 μl of aminoacylated ZmaH reaction products was injected, and products were separated using the same method as above.
# ZmaN = assay: Formation of glyceryl-ZmaD (ZmaN-catalyzed modification of holo-ACP, HPLC analysis); assay type: biochemical, Bacillus cereus; conditions: 50 μM 3-PG, ATP
# Chain of ZmaN (as listed by the source, one chain of several): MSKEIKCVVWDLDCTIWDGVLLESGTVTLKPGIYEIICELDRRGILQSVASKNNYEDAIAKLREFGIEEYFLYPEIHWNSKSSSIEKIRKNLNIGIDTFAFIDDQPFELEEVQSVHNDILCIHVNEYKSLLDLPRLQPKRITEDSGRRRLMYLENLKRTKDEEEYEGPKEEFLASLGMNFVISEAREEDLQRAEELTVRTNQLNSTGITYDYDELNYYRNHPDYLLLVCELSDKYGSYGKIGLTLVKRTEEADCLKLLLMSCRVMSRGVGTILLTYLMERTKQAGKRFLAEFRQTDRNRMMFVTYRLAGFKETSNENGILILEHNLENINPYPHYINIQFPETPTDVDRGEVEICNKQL
# Procedure: Control reactions were run without ZmaN, ATP, or with 2 U of 3-PGPK (Sigma). A time course comparing reactions with and without 3-PGPK contained 50 μM 3-PG, and the reactions were run for 0.5, 2.0, 5.0, and 10 min.
# Reactions containing glyceraldehyde-3-phosphate (150 μl final volume) contained: 12.5 μM holo-ZmaD, 75 mM Tris pH 7.5, 10 mM MgCl2, 1 mM TCEP, 100 mM NaCl, 500 μM CoA, 1 μM Sfp, 250 μM DL-glyceraldehyde-3-phosphate (Sigma), 1 U GAPDH (Sigma), and 1 μM ZmaN were run for 40 min at 22° C. Control reactions without GAPDH, DL-glyceraldehyde-3-phosphate, Sfp, or ZmaN were run, as well as control reactions in which holo-ZmaH replaced holo-ZmaD.
# T1 sequence (Q7BQ71 whole entry): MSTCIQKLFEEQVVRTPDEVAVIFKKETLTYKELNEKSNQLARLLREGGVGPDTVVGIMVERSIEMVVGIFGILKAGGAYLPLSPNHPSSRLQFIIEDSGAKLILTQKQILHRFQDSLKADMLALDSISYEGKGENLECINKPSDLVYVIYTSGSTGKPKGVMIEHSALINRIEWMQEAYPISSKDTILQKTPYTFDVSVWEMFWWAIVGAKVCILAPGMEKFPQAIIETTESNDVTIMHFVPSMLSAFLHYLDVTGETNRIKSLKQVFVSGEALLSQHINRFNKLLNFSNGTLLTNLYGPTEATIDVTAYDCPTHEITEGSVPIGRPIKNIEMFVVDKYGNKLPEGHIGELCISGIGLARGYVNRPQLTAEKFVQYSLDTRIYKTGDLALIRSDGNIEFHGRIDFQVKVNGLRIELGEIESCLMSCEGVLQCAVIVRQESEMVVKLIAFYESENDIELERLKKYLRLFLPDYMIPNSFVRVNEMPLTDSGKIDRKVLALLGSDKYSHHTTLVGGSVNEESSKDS
molecule,measurement,setting,value
"L-2,3-diaminopropionate",amino acid substrate specificity of ZmaJ (activation),"ZmaJ [1]; 70 nM ZmaJ, 1 mM amino acid",activated only L-Ser
"N[C@@H](CO)C(=O)O [L-Ser, L-serine]",amino acid substrate specificity of ZmaJ (activation),"ZmaJ [1]; 70 nM ZmaJ, 1 mM amino acid",activated only L-Ser
ZmaJ (Bacillus cereus),Km,N[C@@H](CO)C(=O)O,1800 ± 200 µM
same,kcat,N[C@@H](CO)C(=O)O,0.7 ± 0.033 s⁻¹
NCC(=O)O [Gly],amino acid substrate specificity of ZmaJ (activation),ZmaJ [1],activated only L-Ser
N[C@@H](CS)C(=O)O [L-Cys],amino acid substrate specificity of ZmaJ (activation),"ZmaJ [1]; 70 nM ZmaJ, 1 mM amino acid",activated only L-Ser
C[C@@H](O)[C@H](N)C(=O)O [L-Thr],amino acid substrate specificity of ZmaJ (activation),"ZmaJ [1]; 70 nM ZmaJ, 1 mM amino acid",activated only L-Ser
"holo-ZmaD: acyl carrier protein ZmaD (SEQ ID NO:2) phosphopantetheinylated in vitro by Sfp (protein, listed as Bacillus cereus, phosphopantetheinylated) MDNHEKIRQYIKKNLIIFNAEETIVANDENIFEKGYVNSLFAMQMLNFIETEFDIVVDNDELDIINFSTINNMVDLINKKKNGNFTV",aminoacylation by ZmaJ (seryl-ACP formation),ZmaJ [2],not able to aminoacylate
same,rate of holo-ZmaD modification,ZmaN; with 3-PGPK,1.44 nmol/min
same,rate of holo-ZmaD modification,ZmaN; without 3-PGPK,0.08 nmol/min
